Article PMC8765293, “Inhibitor-Resistant Mutants Give Important Insights into Candida albicans ABC Transporter Cdr1 Substrate Specificity and Help Elucidate Efflux Pump Inhibition” (Antimicrobial Agents and Chemotherapy, 2022)
In brackets after ≈: the same amount, converted by molar mass. Where two headings read alike, the source gives them in different places.

How the values were obtained:
[1] = test system: AD/pABC3 (empty vector control, sensitive strain); conditions: cited from earlier work
[2] = molecular target: wt Cdr1 (FLC efflux of AD/CDR1 cells) (Candida albicans, UniProt Q5ANA3); conditions: for lowest MICFLC in the presence of inhibitor: FLC 5 to 640 mg/L tested
wt Cdr1 (FLC efflux of AD/CDR1 cells), sequence (Q5ANA3 whole entry): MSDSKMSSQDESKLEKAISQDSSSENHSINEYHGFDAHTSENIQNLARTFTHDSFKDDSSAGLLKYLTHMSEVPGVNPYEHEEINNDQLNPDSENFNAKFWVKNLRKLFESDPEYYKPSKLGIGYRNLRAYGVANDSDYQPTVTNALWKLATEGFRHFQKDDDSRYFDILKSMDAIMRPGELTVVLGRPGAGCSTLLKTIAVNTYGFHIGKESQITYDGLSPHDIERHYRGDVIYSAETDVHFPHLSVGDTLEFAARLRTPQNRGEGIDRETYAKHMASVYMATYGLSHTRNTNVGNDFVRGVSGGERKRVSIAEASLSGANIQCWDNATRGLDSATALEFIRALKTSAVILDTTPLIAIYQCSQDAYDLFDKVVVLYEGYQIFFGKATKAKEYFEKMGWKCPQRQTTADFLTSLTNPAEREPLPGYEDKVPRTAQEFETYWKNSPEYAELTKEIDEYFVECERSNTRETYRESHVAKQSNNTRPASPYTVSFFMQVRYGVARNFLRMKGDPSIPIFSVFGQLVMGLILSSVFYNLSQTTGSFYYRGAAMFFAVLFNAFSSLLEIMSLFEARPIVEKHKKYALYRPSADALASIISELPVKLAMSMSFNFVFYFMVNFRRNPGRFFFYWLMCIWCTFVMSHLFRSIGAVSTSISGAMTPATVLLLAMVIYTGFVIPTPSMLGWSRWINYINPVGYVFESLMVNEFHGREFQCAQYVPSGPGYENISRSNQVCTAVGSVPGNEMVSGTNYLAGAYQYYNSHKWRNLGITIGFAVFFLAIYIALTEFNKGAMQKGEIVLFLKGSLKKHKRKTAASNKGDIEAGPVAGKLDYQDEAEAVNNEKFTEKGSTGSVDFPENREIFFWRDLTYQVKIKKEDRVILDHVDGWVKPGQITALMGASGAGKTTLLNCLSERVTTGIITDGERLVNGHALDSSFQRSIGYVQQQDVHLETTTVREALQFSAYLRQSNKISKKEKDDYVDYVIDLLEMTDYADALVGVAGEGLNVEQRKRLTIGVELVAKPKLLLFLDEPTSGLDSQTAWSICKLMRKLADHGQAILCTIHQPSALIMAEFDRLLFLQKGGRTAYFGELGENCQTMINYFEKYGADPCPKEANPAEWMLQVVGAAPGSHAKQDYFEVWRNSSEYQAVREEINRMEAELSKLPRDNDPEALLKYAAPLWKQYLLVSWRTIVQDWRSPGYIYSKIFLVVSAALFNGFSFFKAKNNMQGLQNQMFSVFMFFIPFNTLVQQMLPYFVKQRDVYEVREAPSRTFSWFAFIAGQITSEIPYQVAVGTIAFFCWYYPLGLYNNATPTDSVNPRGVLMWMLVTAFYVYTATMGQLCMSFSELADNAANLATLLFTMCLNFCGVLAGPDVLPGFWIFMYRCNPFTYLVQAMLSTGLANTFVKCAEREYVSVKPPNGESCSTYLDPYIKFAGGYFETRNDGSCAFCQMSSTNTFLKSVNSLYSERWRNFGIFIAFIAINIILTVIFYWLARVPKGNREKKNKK

[3] = test system: all strains, including AD/pABC3; experiment: Liquid MIC of efflux pump inhibitors alone
wt Cdr1 ATPase activity = wt Cdr1 ATPase activity (Candida albicans, UniProt Q5ANA3); experiment: biochemical; conditions: for Vmax of ATPase activity in the presence of inhibitor: CDR1
wt Cdr1 ATPase activity, sequence (Q5ANA3 whole entry, the tested form may be a part): as the sequence (Q5ANA3 whole entry) above

[4] = molecular target: Cdr1-M639I (FLC transport) (Candida albicans, UniProt Q5ANA3, M639I); experiment: Agarose diffusion FLC chemosensitization assay; type: cell-based; conditions: 0.25× MICFLC, disc
Cdr1-M639I (FLC transport), sequence (Q5ANA3 whole entry M639I, the tested form may be a part): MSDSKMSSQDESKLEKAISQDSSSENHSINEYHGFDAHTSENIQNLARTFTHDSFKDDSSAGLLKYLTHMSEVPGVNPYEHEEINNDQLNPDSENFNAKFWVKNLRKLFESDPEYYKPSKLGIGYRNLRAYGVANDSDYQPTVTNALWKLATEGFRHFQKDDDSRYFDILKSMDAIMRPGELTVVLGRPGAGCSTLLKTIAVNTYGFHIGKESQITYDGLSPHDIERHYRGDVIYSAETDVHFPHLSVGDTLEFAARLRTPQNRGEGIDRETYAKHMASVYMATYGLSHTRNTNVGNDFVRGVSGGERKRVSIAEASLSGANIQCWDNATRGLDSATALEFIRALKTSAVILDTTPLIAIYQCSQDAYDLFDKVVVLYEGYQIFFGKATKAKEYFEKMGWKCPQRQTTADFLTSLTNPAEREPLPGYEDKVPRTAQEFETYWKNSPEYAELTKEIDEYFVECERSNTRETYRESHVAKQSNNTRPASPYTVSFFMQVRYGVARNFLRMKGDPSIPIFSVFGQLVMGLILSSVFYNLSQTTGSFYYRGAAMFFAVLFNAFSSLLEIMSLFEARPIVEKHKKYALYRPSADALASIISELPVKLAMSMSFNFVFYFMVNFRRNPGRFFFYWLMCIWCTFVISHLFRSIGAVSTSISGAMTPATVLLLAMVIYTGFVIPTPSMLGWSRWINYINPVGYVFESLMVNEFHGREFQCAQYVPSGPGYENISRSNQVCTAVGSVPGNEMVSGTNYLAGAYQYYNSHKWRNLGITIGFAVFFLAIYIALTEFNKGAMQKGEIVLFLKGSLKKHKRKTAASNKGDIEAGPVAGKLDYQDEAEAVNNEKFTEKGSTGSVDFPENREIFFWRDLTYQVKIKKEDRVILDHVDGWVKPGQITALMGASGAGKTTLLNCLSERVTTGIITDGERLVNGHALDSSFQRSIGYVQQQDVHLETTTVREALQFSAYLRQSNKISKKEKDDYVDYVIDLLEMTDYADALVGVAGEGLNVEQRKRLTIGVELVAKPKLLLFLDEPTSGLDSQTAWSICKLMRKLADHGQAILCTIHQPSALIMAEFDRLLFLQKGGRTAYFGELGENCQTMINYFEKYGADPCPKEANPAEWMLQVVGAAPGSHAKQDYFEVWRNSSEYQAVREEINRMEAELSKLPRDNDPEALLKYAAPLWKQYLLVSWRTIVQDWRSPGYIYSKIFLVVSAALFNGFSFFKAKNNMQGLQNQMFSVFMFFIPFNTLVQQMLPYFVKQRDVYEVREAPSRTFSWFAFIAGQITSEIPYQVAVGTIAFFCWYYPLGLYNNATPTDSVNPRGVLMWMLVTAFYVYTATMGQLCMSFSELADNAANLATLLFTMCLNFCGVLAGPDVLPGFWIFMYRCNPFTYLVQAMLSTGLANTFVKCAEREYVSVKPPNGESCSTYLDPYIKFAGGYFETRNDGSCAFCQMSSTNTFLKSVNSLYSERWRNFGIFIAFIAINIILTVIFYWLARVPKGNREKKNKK
Experimental: (§1) Compounds were tested for inhibition of FLC transport by yeast strains overexpressing Cdr1 or Cdr1 mutations.

[5] = molecular target: Cdr1-G521R (FLC transport) (Candida albicans, UniProt Q5ANA3, G521R); experiment: Agarose diffusion FLC chemosensitization assay; type: cell-based; conditions: 0.25× MICFLC, disc
Experimental: as §1

[6] = molecular target: Cdr1-A713P (FLC transport) (Candida albicans, UniProt Q5ANA3, A713P); experiment: Agarose diffusion FLC chemosensitization assay; type: cell-based; conditions: 0.25× MICFLC, disc
Experimental: as §1

[7] = molecular target: Cdr1-T1355N (FLC transport) (Candida albicans, UniProt Q5ANA3, T1355N); experiment: Agarose diffusion FLC chemosensitization assay; type: cell-based; conditions: 0.25× MICFLC, disc
Experimental: as §1

[8] = test system: AD/pABC3 (empty vector control, sensitive strain)
AD/CDR1-G521R = experiment: MIC, modified CLSI M27-A3 broth microdilution
[9] = test system: AD/CDR1 (AD1-8u- overexpressing wt Cdr1); experiment: MIC, modified CLSI M27-A3 broth microdilution; conditions: Saccharomyces cerevisiae, read-out: MIC (drug susceptibility)
[10] = test system: AD/pABC3 (empty vector control, sensitive strain); experiment: microbe, parasite or virus in culture; conditions: Saccharomyces cerevisiae, read-out: MIC (drug susceptibility)
AD/CDR1-M639I = experiment: MIC, modified CLSI M27-A3 broth microdilution
AD/CDR1-A713P = experiment: MIC, modified CLSI M27-A3 broth microdilution
AD/CDR1-T1355N = experiment: MIC, modified CLSI M27-A3 broth microdilution
[11] = molecular target: wt Cdr1 (FLC transport of AD/CDR1 cells) (Candida albicans, UniProt Q5ANA3); experiment: Agarose diffusion FLC chemosensitization assay; type: cell-based; conditions: inhibitor-only control
Experimental: as §1

[12] = Saccharomyces cerevisiae, read-out: MIC (drug susceptibility)

In the case of CC(C)[C@H]1C(=O)O[C@H](C(C)C)C(=O)N(C)[C@@H](C(C)C)C(=O)O[C@H](C(C)C)C(=O)N(C)[C@@H](C(C)C)C(=O)O[C@H](C(C)C)C(=O)N1C [Enniatin B, enniatin B], the “synergy with the Cdr1 substrates FLC and R6G” value [1] is given as “no synergy”, the “FICI (inhibitor/FLC combination)” value [2] is given as under 0.13 and the IC50 [2] is given as 160 nM. For the same molecule, the “lowest inhibitor concentration necessary to achieve the lowest MICFLC” value ([2]; CDR1) was 1.25 µM, the “lowest MICFLC in the presence of inhibitor” value ([2]; CDR1) was 5 mg/L and the MIC ([3]; Saccharomyces cerevisiae, read-out: MIC of inhibitor alone) was 10 µM. The IC50 (wt Cdr1 ATPase activity) was 180 nM, the Ki (wt Cdr1 ATPase activity) was 200 ± 30 nM and the “Vmax of ATPase activity in the presence of inhibitor” value (wt Cdr1 ATPase activity; [I] 0.1 μM) was 182 nmol/min/mg. For the same molecule, the “Vmax of ATPase activity in the presence of inhibitor” value (wt Cdr1 ATPase activity; [I] 0.5 μM) was 98 nmol/min/mg, the “type of inhibition of ATPase activity (Lineweaver-Burk)” value (wt Cdr1 ATPase activity; wt Cdr1) was “noncompetitive inhibition” and the “susceptibility of FLC transport to inhibitor on agar” value [4] was “substantial resistance”. For the same molecule, the “susceptibility of FLC transport to inhibitor on agar” value [5] was “resistant”, the “susceptibility of FLC transport to inhibitor on agar” value [6] was “remained susceptible” and the “susceptibility of FLC transport to inhibitor on agar” value [7] was “substantial resistance”.

With OC(Cn1cncn1)(Cn1cncn1)c1ccc(F)cc1F [FLC, fluconazole] the “MIC (drug susceptibility)” value [8] was 1 µg/mL (≈ 3.27 µM), the “Fold-reduced resistance level (MIC) relative to AD/CDR1” value (AD/CDR1-G521R; G521R, 1 = no change) was 4 fold and the MIC (AD/CDR1-G521R; [12]) was 160 µg/mL (≈ 522 µM). For the same molecule, the MIC [9] was 640 µg/mL (≈ 2090 µM), the MICFLC [2] was 640 mg/L and the MIC [10] was 1.25 µg/mL (≈ 4.08 µM). For the same molecule, the “Fold-reduced resistance level (MIC) relative to AD/CDR1” value (AD/CDR1-M639I; M639I, 1 = no change) was 1 fold, the MIC (AD/CDR1-M639I; [12]) was 640 µg/mL (≈ 2090 µM) and the “Fold-reduced resistance level (MIC) relative to AD/CDR1” value (AD/CDR1-A713P; A713P, 1 = no change) was 2 fold. For the same molecule, the MIC (AD/CDR1-A713P; [12]) was 320 µg/mL (≈ 1040 µM), the MIC (AD/CDR1-T1355N; [12]) was 320 µg/mL (≈ 1040 µM) and the “Fold-reduced resistance level (MIC) relative to AD/CDR1” value (AD/CDR1-T1355N; T1355N, 1 = no change) was 2 fold. For the same molecule, the “effect of substrate on ATPase activity” value (wt Cdr1 ATPase activity) was “no effect”.

In the case of milbemycin α25, the “FICI (inhibitor/FLC combination)” value [2] is reported as under 0.02, the “lowest inhibitor concentration necessary to achieve the lowest MICFLC” value ([2]; CDR1) is reported as 0.63 µM and the “lowest MICFLC in the presence of inhibitor” value ([2]; CDR1) is reported as 5 mg/L. The “FICI (inhibitor/FLC combination)” value ([2]; listed as milbemycin α25) was 0.02, the IC50 ([2]; read-out: IC50 for inhibition of FLC efflux (MICFLC), CDR1, live whole cells, from Fig. 3B) was 80 nM and the “MIC of inhibitor alone” value ([3]; all strains, including AD/pABC3) was over 20 µM. For the same molecule, the IC50 (wt Cdr1 ATPase activity; CDR1 (wt), from Fig. 4, read-out: IC50 for inhibition of Cdr1 ATPase activity) was 2800 nM, the “susceptibility of FLC transport to inhibitor on agar” value [4] was “most resistance” and the “toxicity of inhibitor alone on agar without FLC” value [11] was “slight growth inhibitory zone”. The “susceptibility of FLC transport to inhibitor on agar” value [5] was “more resistant”, the “susceptibility of FLC transport to inhibitor on agar” value [6] was “resistant” and the “susceptibility of FLC transport to inhibitor on agar” value [7] was “most resistance”.
